Earlier results, collected in patent publication US20030013692A1, “Methods of treating neurological disorders” (priority 2001, published 2003).

Settings: nimodipine treated subarachnoid hemorrhage (SAH) patients

- concentration detected in the cerebrospinal fluid: ≤ 0.0125 µg/mL
Compound: COCCOC(=O)C1=C(C)NC(C)=C(C(=O)OC(C)C)C1c1cccc([N+](=O)[O-])c1 (stereo not shown) [nimodipine, Isopropyl (2-methoxyethyl) 1,4-dihydro-2,6-dimethyl-4-(3-nitrophenyl)-3,5-pyridine-dicarboxylate]
